From patent US11154529B2, “Phosphaplatin liquid formulations” (Phosplatin Therapeutics Inc., priority 2016, dated 2021)

Test: Ready-to-use formulation stability at 25° C./60% RH, 5 mg/mL (R,R)-pyrodach-2 in 10 mM Potassium Phosphate Buffer at pH 7.2, 10 mL vials
Format: physicochemical
Experimental: A scalable and commercially viable process for the manufacture of a ready-to-use formulation of (R,R)-pyrodach-2 in 10 mM buffer adjusted to a pH of 7.0-7.5 comprises the steps of: a) preparing a 10 mM aqueous solution of buffer; b) adding sufficient hydroxide base to effect neutralization of the added (R,R)-pyrodach-2 to reach a pH of about 7; c) adding (R,R)-pyrodach-2 and allowing it to dissolve; d) if necessary adding additional hydroxide to adjust the pH into a range of about 7.0-7.5; and e) filtering the solution under sterile conditions, filling the solution into glass vials, and covering it with a stopper and/or a cap. Stability data on two large batches of 5 mg/mL (R,R)-pyrodach-2 in 10 mM potassium phosphate buffer were generated. One such batch at pH=7.2 was evaluated at both 25° C./60% RH and refrigerated (2-8° C.) conditions, with data summarized in Table 4 and Table 5, respectively. […] Similar observations have been made for the ready-to-use liquid formulation at pH7.4, as illustrated in Table 6 and Table 7.
• Transfer 4564.6 mg±0.5 mg of potassium phosphate dibasic, trihydrate to a 2-L volumetric flask. • Fill flask to approximately 75% volume with water, swirl as needed to dissolve all solids. • Volumetrically transfer 32.0 mL of 1N KOH to flask. • Dilute flask to volume with water and mix well. • Record pH of final solution. This is the diluent. • Transfer 7653.1 mg±0.5 mg of (R,R)-pyrodach-2 to a compounding vessel. • Transfer 1500 mL of the diluent to the vessel and stir to dissolve solids. • Record pH of final solution. • Pass entire solution through a 0.22 μm sterile filter membrane into a sterile collection vessel. • Calculate (R,R)-pyrodach-2 solution concentration
To a […] glass beaker equipped with mechanical mixer was add 24645.5 g of sterile water for injection. With agitation 47.03 gm of dibasic potassium phosphate USP was added and the solids allowed to dissolve. To the stirred solution was added 253.8 gm of 1.00 N potassium hydroxide. Sterile water for injection USP (900.0 gm) was used as a rinse to facilitate both additions. With vigorous agitation, (R,R)-pyrodach-2 (201.87 gm) was slowly added and agitation continued until all of the solids dissolved. Sterile water for injection USP (900.0 gm) was used as a rinse to facilitate the addition. The pH was determined to be 6.7. A total of 85 mL of 1.00 N potassium hydroxide was added in 5.0 mL aliquots to adjust the pH to 7.3. The solution was sterile filtered through 0.22μ Millipore Millipack filter and aseptically filled, 10 ml top a vial in 10 mL in 10 cc Wheaton clear molded vails, stoppered with a 20 mm stopper and crimp seal capped.

Compound: O=P1(O)OP(=O)(O)[O][Pt]2([NH][C@@H]3CCCC[C@H]3[NH]2)[O]1 (stereo partly drawn) [(R,R)-pyrodach-2, (R,R)-trans-1,2-cyclohexanediamine-(dihydrogenpyrophosphato)platinum(II)]
- (DACH) Pt-diaquo (~RRT 0.3) (1 Month): 0.15%
- (DACH) Pt-monoaquo (~RRT 0.7) (1 Month): 0.75%
- Assay (Potency) (1 Month): 96.5%
- PT-112 Dimer (~RRT 4.0) (1 Month): 0.33%
- RRT 0.58 (1 Month): 0.13%
- RRT 0.67 (1 Month): 0.06%
- RRT 3.1-3.2 (1 Month): 0.22%
- Total Related Substances (1 Month): 2%
- pH (1 Month): 7.2
- (DACH) Pt-diaquo (~RRT 0.3) (2 Month): 0.09%
- (DACH) Pt-monoaquo (~RRT 0.7) (2 Month): 0.96%
- Assay (Potency) (2 Month): 99.5%
- PT-112 Dimer (~RRT 4.0) (2 Month): 0.36%
- RRT 0.50 (2 Month): 0.05%
- RRT 0.58 (2 Month): 0.15%
- RRT 0.67 (2 Month): 0.09%
- RRT 3.1-3.2 (2 Month): 0.32%
- RRT 3.65 (2 Month): 0.08%
- Total Related Substances (2 Month): 2%
- pH (2 Month): 7.2
- (DACH) Pt-diaquo (~RRT 0.3) (3 Month): 0.19%
- (DACH) Pt-monoaquo (~RRT 0.7) (3 Month): 0.73%
- Assay (Potency) (3 Month): 98.2%
- PT-112 Dimer (~RRT 4.0) (3 Month): 0.37%
- RRT 0.50 (3 Month): 0.08%
- RRT 0.58 (3 Month): 0.18%
- RRT 0.67 (3 Month): 0.06%
- RRT 3.1-3.2 (3 Month): 0.37%
- RRT 3.65 (3 Month): 0.11%
- Total Related Substances (3 Month): 2%
- pH (3 Month): 7.3
- (DACH) Pt-diaquo (~RRT 0.3) (4 Month): 0.13%
- (DACH) Pt-monoaquo (~RRT 0.7) (4 Month): 1.05%
- Assay (Potency) (4 Month): 97.9%
- PT-112 Dimer (~RRT 4.0) (4 Month): 0.36%
- RRT 0.50 (4 Month): 0.09%
- RRT 0.58 (4 Month): 0.20%
- RRT 0.67 (4 Month): 0.07%
- RRT 3.1-3.2 (4 Month): 0.38%
- RRT 3.46 (4 Month): 0.05%
- RRT 3.65 (4 Month): 0.13%
- Total Related Substances (4 Month): 2%
- pH (4 Month): 7.1
- (DACH) Pt-diaquo (~RRT 0.3) (6 Month): 0.15%
- (DACH) Pt-monoaquo (~RRT 0.7) (6 Month): 1.03%
- Assay (Potency) (6 Month): 97.5%
- PT-112 Dimer (~RRT 4.0) (6 Month): 0.37%
- RRT 0.50 (6 Month): 0.15%
- RRT 0.58 (6 Month): 0.21%
- RRT 0.67 (6 Month): 0.07%
- RRT 0.86 (6 Month): 0.05%
- RRT 3.1-3.2 (6 Month): 0.40%
- RRT 3.65 (6 Month): 0.24%
- RRT 4.97 (6 Month): 0.05%
- Total Related Substances (6 Month): 3%
- pH (6 Month): 7.2
- Particulate Matter (Light Obscuration) (6 Month, first value): 20 particles particles per container
- Particulate Matter (Light Obscuration) (6 Month, second value): 3 particles particles per container
- (DACH) Pt-diaquo (~RRT 0.3) (9 Month): 0.16%
- (DACH) Pt-monoaquo (~RRT 0.7) (9 Month): 1.10%
- Assay (Potency) (9 Month): 96.8%
- PT-112 Dimer (~RRT 4.0) (9 Month): 0.39%
- RRT 0.50 (9 Month): 0.19%
- RRT 0.58 (9 Month): 0.27%
- RRT 0.67 (9 Month): 0.10%
- RRT 0.86 (9 Month): 0.05%
- RRT 3.1-3.2 (9 Month): 0.30%
- RRT 3.65 (9 Month): 0.39%
- RRT 4.97 (9 Month): 0.08%
- Total Related Substances (9 Month): 3%
- pH (9 Month): 7.2
- (DACH) Pt-diaquo (~RRT 0.3) (12 Month): 0.18%
- (DACH) Pt-monoaquo (~RRT 0.7) (12 Month): 0.91%
- Assay (Potency) (12 Month): 96.8%
- PT-112 Dimer (~RRT 4.0) (12 Month): 0.33%
- RRT 0.41 (12 Month): 0.05%
- RRT 0.50 (12 Month): 0.26%
- RRT 0.58 (12 Month): 0.26%
- RRT 0.67 (12 Month): 0.13%
- RRT 0.86 (12 Month): 0.05%
- RRT 3.1-3.2 (12 Month): 0.44%
- RRT 3.65 (12 Month): 0.52%
- RRT 4.97 (12 Month): 0.20%
- Total Related Substances (12 Month): 3%
- pH (12 Month): 7.2
- Particulate Matter (Light Obscuration) (12 Month, first value): 36 particles particles per container
- Particulate Matter (Light Obscuration) (12 Month, second value): 2 particles particles per container
- (DACH) Pt-diaquo (~RRT 0.3) (15 Month): 0.14%
- (DACH) Pt-monoaquo (~RRT 0.7) (15 Month): 0.84%
- Assay (Potency) (15 Month): 98.1%
- PT-112 Dimer (~RRT 4.0) (15 Month): 0.29%
- RRT 0.41 (15 Month): 0.07%
- RRT 0.50 (15 Month): 0.37%
- RRT 0.58 (15 Month): 0.26%
- RRT 0.67 (15 Month): 0.07%
- RRT 3.1-3.2 (15 Month): 0.41%
- RRT 3.65 (15 Month): 0.63%
- RRT 4.97 (15 Month): 0.28%
- Total Related Substances (15 Month): 3%
- pH (15 Month): 7.3
- (DACH) Pt-diaquo (~RRT 0.3) (18 Month): 0.14%
- (DACH) Pt-monoaquo (~RRT 0.7) (18 Month): 1.04%
- Assay (Potency) (18 Month): 99.0%
- PT-112 Dimer (~RRT 4.0) (18 Month): 0.30%
- RRT 0.41 (18 Month): 0.06%
- RRT 0.50 (18 Month): 0.36%
- RRT 0.58 (18 Month): 0.29%
- RRT 0.67 (18 Month): 0.11%
- RRT 0.86 (18 Month): 0.14%
- RRT 3.1-3.2 (18 Month): 0.40%
- RRT 3.65 (18 Month): 0.75%
- RRT 4.97 (18 Month): 0.43%
- Total Related Substances (18 Month): 4%
- pH (18 Month): 7.2
- (DACH) Pt-diaquo (~RRT 0.3) (24 Month): 0.15%
- (DACH) Pt-monoaquo (~RRT 0.7) (24 Month): 0.83%
- Assay (Potency) (24 Month): 97.5%
- PT-112 Dimer (~RRT 4.0) (24 Month): 0.36%
- RRT 0.41 (24 Month): 0.12%
- RRT 0.46 (24 Month): 0.10%
- RRT 0.50 (24 Month): 0.70%
- RRT 0.58 (24 Month): 0.17%
- RRT 0.67 (24 Month): 0.07%
- RRT 3.1-3.2 (24 Month): 0.41%
- RRT 3.46 (24 Month): 0.07%
- RRT 3.65 (24 Month): 1.24%
- RRT 4.97 (24 Month): 0.73%
- Total Related Substances (24 Month): 5%
- pH (24 Month): 7.2
- Particulate Matter (Light Obscuration) (24 Month, first value): 81 particles particles per container
- Particulate Matter (Light Obscuration) (24 Month, second value): 4 particles particles per container
- (DACH) Pt-diaquo (~RRT 0.3) (Initial): 0.16%
- (DACH) Pt-monoaquo (~RRT 0.7) (Initial): 0.98%
- Assay (Potency) (Initial): 99.8%
- PT-112 Dimer (~RRT 4.0) (Initial): 0.19%
- RRT 0.58 (Initial): 0.13%
- RRT 0.67 (Initial): 0.05%
- Total Related Substances (Initial): 2%
- pH (Initial): 7.2
- Particulate Matter (Light Obscuration) (Initial, first value): 219 particles particles per container
- Particulate Matter (Light Obscuration) (Initial, second value): 11 particles particles per container
